# Laboratory results: patent publication US20150352137A1, “THYMIDINE FOR PREVENTING NEURAL TUBE DEFECTS” (priority 2012, published 2015)
# What was measured:
# [1] = tested on: curly tail (ct/ct) embryos; test: Frequency of spina bifida, tail flexion defects and straight tails in curly tail embryos after maternal supplementation; format: in vivo, mouse; conditions: for frequency of spina bifida compared with controls: maternal i.p. 20 mg/kg each reagent daily E7.5-10.5, embryos scored E11.5-13.5; for frequency of spina bifida compared with controls / frequency of straight-tailed (unaffected) embryos compared with controls: z-test; for frequency of straight-tailed (unaffected) embryos compared with controls: all embryos
# From the text: The curly tail (ct) mouse is considered a useful model for NTDs owing to a number of characteristics that resemble the corresponding defects in humans. These include a multifactorial etiology (with effects of both genetic and environmental factors), location of spina bifida lesions at the lumbosacral level, the presence of elevated alpha-fetoprotein in the amniotic fluid and a female excess among exencephalic embryos. […] The closure defects in ct/ct embryos are a mechanical consequence of excessive ventral curvature of the caudal region of the embryo. This, in turn, results from a dorso-ventral growth imbalance caused by a diminished cellular proliferation rate in the hindgut endoderm. In addition to spina bifida, cranial NTDs (exencephaly) also occur at low frequency among curly tail embryos (approximately 5%), but the cellular basis for these defects is not known. Curly tail mice were maintained as a closed random-bred colony as described in Van […] et al (Anat Embryol 2001 203: 225-237). […] Any resorptions were recorded. Crown-rump length was measured using an eyepiece graticule. Statistical analysis was carried out using SigmaStat (version 3.5; Systat Software Inc). Proportions were compared by z-test. Comparisons of mean values were made by […] or by One Way ANOVA with pairwise analysis by Holm-Sidak test. Embryos removed from pregnant females at E11.5-13.5 were scored for the outcome of low spinal neurulation as: normal (ST, straight tail), tail flexion defect (CT, curled tail), or open spina bifida which was always associated with a tail flexion defect (SB plus CT). Tail flexion defects arise when closure of the neural tube is delayed but does ultimately occur.
# curly tail mice = conditions: female, mouse, in vivo
# Procedure: Experimental litters were generated by overnight mating with the day of finding a copulation plug designated embryonic day (E) 0.5. Maternal supplementation was performed daily from E7.5-10.5.
# Treatments were: control (water only), thymidine+adenine, thymidine+hypoxanthine, thymidine+GMP, thymidine only, adenine only (all reagents from Sigma). GMP was used instead of guanine owing to solubility considerations in preparing solutions for injection. Animal studies were carried out under regulations of the Animals (Scientific Procedures) Act 1986 of the UK Government, and in according with guidance issued by the Medical Research Council, UK in Responsibility in the Use of Animals for Medical Research (July 1993).
# Collection of Embryos Litters were dissected from the uterus, at E11.5-13.5, in Dulbecco's Modified Eagle's Medium containing 10% fetal calf serum and assessed for presence of neural tube defects (NTDs) under a light microscope. Any resorptions were recorded. Crown-rump length was measured using an eyepiece graticule.
# In order to evaluate potential effects of treatment on litter size or embryonic viability, the number of embryos in each litter was recorded together with the presence of dead or resorbed embryos.
# curly tail embryos = test: Frequency of exencephaly (cranial NTDs) among curly tail embryos after maternal supplementation; format: in vivo, mouse; conditions: maternal i.p. 20 mg/kg each reagent daily E7.5-10.5; controls 6.8%
# Procedure: The closure defects in ct/ct embryos are a mechanical consequence of excessive ventral curvature of the caudal region of the embryo. This, in turn, results from a dorso-ventral growth imbalance caused by a diminished cellular proliferation rate in the hindgut endoderm. In addition to spina bifida, cranial NTDs (exencephaly) also occur at low frequency among curly tail embryos (approximately 5%), but the cellular basis for these defects is not known. […] Any resorptions were recorded. Crown-rump length was measured using an eyepiece graticule. The frequency of exencephaly (cranial NTDs) among genetically predisposed curly tail embryos was also assessed. The frequency of exencephaly was 6.8% among embryos from control litters. There was a trend towards diminished frequency of exencephaly among embryos treated with thymidine and adenine, thymidine and GMP, or thymidine only, compared with controls (3.0%, 2.5% and 2.7% respectively, see FIG. 4).
# genomic DNA = test: Incorporation of tritiated nucleotide precursors into genomic DNA in embryo culture; set-up: species or system mouse; conditions: embryos cultured E9.5-10.5, mean ± SEM, n = 3
# Procedure: Embryos were explanted at E9.5 and cultured for 24 hours in rat serum as described previously (Cockroft, In: Copp […], editors. Postimplantation Mammalian Embryos: A Practical Approach. Oxford: […] DNA concentration was determined by NanoDrop.
# neural tube defects = conditions: cited from earlier work
# ct/ct embryos = conditions: supplementation; cited from earlier work
structure (smiles),measurement,setting,value
"Nc1ncnc2nc[nH]c12 [Ade only, adenine]",frequency of spina bifida compared with controls,[1],no effect
same,Mean litter size,curly tail mice,7.5 ± 0.7
same,Resorption per litter,curly tail mice,0.8 ± 0.3
"Cc1cn([C@H]2C[C@H](O)[C@@H](CO)O2)c(=O)[nH]c1=O [Thy only, thymidine]",frequency of straight-tailed (unaffected) embryos compared with controls,[1]; listed as Thy,significantly higher
same,frequency of straight-tailed (unaffected) embryos compared with controls,[1]; listed as thymidine only,higher frequency
same,"proportion of unaffected, straight tail embryos within litter compared with controls","[1]; litter-by-litter analysis, One Way ANOVA",not statistically significant
same,frequency of spina bifida compared with controls,[1]; 20 mg/kg,trend towards reduced spina bifida frequency
same,frequency of spina bifida compared with controls,"[1]; listed as thymidine alone, 20 mg/kg",trend towards reduced frequency
same,frequency of exencephaly,curly tail embryos,2.7%
same,Mean litter size,curly tail mice,7.4 ± 0.8
same,Resorption per litter,curly tail mice,0.9 ± 0.4
Nc1ncnc2nc[nH]c12 [[^3H]-adenine],[^3H] incorporation into genomic DNA,"genomic DNA; 37,000 Bq/ml, 0.036 nmol/ml",40.0 ± 6.6 cpm/μg
same,[^3H] incorporation into genomic DNA,"genomic DNA; 74,000 Bq/ml, 0.07 nmol/ml",82.8 ± 6.7 cpm/μg
Cc1cn([C@H]2C[C@H](O)[C@@H](CO)O2)c(=O)[nH]c1=O [[^3H]-thymidine],[^3H] incorporation into genomic DNA,"genomic DNA; 37,000 Bq/ml, 0.07 nmol/ml",898.4 ± 98.0 cpm/μg
Nc1nc2ncc(CNc3ccc(C(=O)N[C@@H](CCC(=O)O)C(=O)O)cc3)nc2c(=O)[nH]1 [folic acid],reduction of NTD recurrence risk,"neural tube defects; 5 mg/day, women with a previous affected pregnancy",~70%
same,reduction in the prevalence of NTDs,"neural tube defects; USA, fortification of bread flour",26%
same,NTDs not preventable by maternal treatment,"neural tube defects; human, in vivo",30-50%
same,NTD recurrences prevented,"neural tube defects; randomised clinical trials, administered early in pregnancy",up to 70%
same,prevention of NTDs in ct/ct embryos,ct/ct embryos,not preventable
